Assay results published in ChEMBL document CHEMBL1275440, “In vitro activity of telavancin against resistant gram-positive bacteria” (2008).
In brackets after ≈: the same amount, converted by molar mass. Activity calls are given as the source filed them. The calls are words filed in the database; no cut-off is given here.

What was measured:
Type in all cases: functional
Streptococcus pneumoniae [1] = test: Antibacterial activity against multidrug-resistant Streptococcus pneumoniae clinical isolate assessed as susceptibility level by broth microdilution method
Streptococcus pyogenes [2] = test: Antibacterial activity against Streptococcus pyogenes group A clinical isolate assessed as susceptibility level by broth microdilution method
[3] = tested on: Streptococcus intermedius; test: Antibacterial activity against Streptococcus intermedius clinical isolate assessed as susceptibility level by broth microdilution method
Streptococcus pneumoniae [4] = test: Antibacterial activity against penicillin intermediate Streptococcus pneumoniae clinical isolate assessed as susceptibility level by broth microdilution method
Streptococcus pneumoniae [5] = test: Antibacterial activity against penicillin intermediate Streptococcus pneumoniae clinical isolate by broth microdilution method
Streptococcus pneumoniae [6] = test: Antibacterial activity against penicillin resistant Streptococcus pneumoniae clinical isolate assessed as susceptibility level by broth microdilution method
Streptococcus oralis [7] = test: Antibacterial activity against Streptococcus oralis clinical isolate assessed as susceptibility level by broth microdilution method
Streptococcus oralis [8] = test: Antibacterial activity against Streptococcus oralis clinical isolate by broth microdilution method
[9] = tested on: Streptococcus intermedius; test: Antibacterial activity against Streptococcus intermedius clinical isolate by broth microdilution method
Streptococcus mitis [10] = test: Antibacterial activity against Streptococcus mitis clinical isolate assessed as susceptibility level by broth microdilution method
Streptococcus mitis [11] = test: Antibacterial activity against Streptococcus mitis clinical isolate by broth microdilution method
Streptococcus agalactiae [12] = test: Antibacterial activity against Streptococcus agalactiae group B clinical isolate assessed as susceptibility level by broth microdilution method
Streptococcus pneumoniae [13] = test: Antibacterial activity against multidrug-resistant Streptococcus pneumoniae clinical isolate by broth microdilution method
Streptococcus viridans [14] = test: Antibacterial activity against Streptococcus viridans clinical isolate by broth microdilution method
Streptococcus pneumoniae [15] = test: Antibacterial activity against penicillin resistant Streptococcus pneumoniae clinical isolate by broth microdilution method
Streptococcus agalactiae [16] = test: Antibacterial activity against Streptococcus agalactiae group B clinical isolate by broth microdilution method
Streptococcus viridans [17] = test: Antibacterial activity against Streptococcus viridans clinical isolate assessed as susceptibility level by broth microdilution method
[18] = tested on: Streptococcus constellatus; test: Antibacterial activity against Streptococcus constellatus clinical isolate assessed as susceptibility level by broth microdilution method
Streptococcus pyogenes [19] = test: Antibacterial activity against Streptococcus pyogenes group A clinical isolate by broth microdilution method
[20] = tested on: Streptococcus constellatus; test: Antibacterial activity against Streptococcus constellatus clinical isolate by broth microdilution method

SMILES: CCC[C@@H]1C[C@@H](C(=O)N[C@@H]([C@H]2O[C@H](SC)[C@H](O)[C@@H](O)[C@H]2O)[C@H](C)Cl)N(C)C1 [CLINDAMYCIN]
- Activity (Streptococcus pneumoniae [1]): 73%
- Activity (Streptococcus pyogenes [2]): 98%
- Activity [3]: 88%
- Activity (Streptococcus pneumoniae [4]): 83%
- MIC (Streptococcus pneumoniae [5]): 0.06 mg/L (≈ 0.141 µM)
- MIC50 (Streptococcus pneumoniae [5]): 0.06 mg/L (≈ 0.141 µM)
- MIC90 (Streptococcus pneumoniae [5]): 0.5 mg/L (≈ 1.18 µM)
- Activity (Streptococcus pneumoniae [6]): 76%
- Activity (Streptococcus oralis [7]): 88%
- MIC (Streptococcus oralis [8]): ≤ 0.03 mg/L
- MIC50 (Streptococcus oralis [8]): inactive
- MIC90 (Streptococcus oralis [8]): inactive
- MIC [9]: ≤ 0.03 mg/L
- MIC50 [9]: inactive
- MIC90 [9]: inactive
- Activity (Streptococcus mitis [10]): 88%
- MIC (Streptococcus mitis [11]): ≤ 0.03 mg/L
- MIC50 (Streptococcus mitis [11]): inactive
- MIC90 (Streptococcus mitis [11]): inactive
- Activity (Streptococcus agalactiae [12]): 86%
- MIC50 (Streptococcus pneumoniae [13]): 0.06 mg/L (≈ 0.141 µM)
- MIC90 (Streptococcus pneumoniae [13]): > 0.25 mg/L
- MIC (Streptococcus viridans [14]): ≤ 0.03 mg/L
- MIC50 (Streptococcus viridans [14]): inactive
- MIC90 (Streptococcus viridans [14]): inactive
- MIC50 (Streptococcus pneumoniae [15]): 0.06 mg/L (≈ 0.141 µM)
- MIC90 (Streptococcus pneumoniae [15]): > 0.25 mg/L
- MIC50 (Streptococcus agalactiae [16]): 0.06 mg/L (≈ 0.141 µM)
- MIC90 (Streptococcus agalactiae [16]): > 0.25 mg/L
- Activity (Streptococcus viridans [17]): 88%
- Activity [18]: 88%
- MIC (Streptococcus pyogenes [19]): ≤ 0.03 mg/L
- MIC50 (Streptococcus pyogenes [19]): ≤ 0.03 mg/L
- MIC90 (Streptococcus pyogenes [19]): 0.06 mg/L (≈ 0.141 µM)
- MIC [20]: ≤ 0.03 mg/L
- MIC50 [20]: inactive
- MIC90 [20]: inactive

SMILES: C[C@H]1COc2c(N3CCN(C)CC3)c(F)cc3c(=O)c(C(=O)O)cn1c23.C[C@H]1COc2c(N3CCN(C)CC3)c(F)cc3c(=O)c(C(=O)O)cn1c23.O [LEVOFLOXACIN]
- Activity (Streptococcus pneumoniae [1]): 95%
- Activity (Streptococcus pyogenes [2]): 98%
- Activity [3]: 100%
- Activity (Streptococcus pneumoniae [4]): 92%
- MIC50 (Streptococcus pneumoniae [5]): 0.5 mg/L
- MIC90 (Streptococcus pneumoniae [5]): 1 mg/L
- Activity (Streptococcus pneumoniae [6]): 97%
- Activity (Streptococcus oralis [7]): 100%
- MIC (Streptococcus oralis [8]): ≤ 0.12 mg/L
- MIC50 (Streptococcus oralis [8]): inactive
- MIC90 (Streptococcus oralis [8]): inactive
- MIC [9]: ≤ 0.12 mg/L
- MIC50 [9]: inactive
- MIC90 [9]: inactive
- Activity (Streptococcus mitis [10]): 100%
- MIC (Streptococcus mitis [11]): ≤ 0.12 mg/L
- MIC50 (Streptococcus mitis [11]): inactive
- MIC90 (Streptococcus mitis [11]): inactive
- Activity (Streptococcus agalactiae [12]): 99%
- MIC50 (Streptococcus pneumoniae [13]): 0.5 mg/L
- MIC90 (Streptococcus pneumoniae [13]): 1 mg/L
- MIC (Streptococcus viridans [14]): ≤ 0.12 mg/L
- MIC50 (Streptococcus viridans [14]): inactive
- MIC90 (Streptococcus viridans [14]): inactive
- MIC50 (Streptococcus pneumoniae [15]): 0.5 mg/L
- MIC90 (Streptococcus pneumoniae [15]): 1 mg/L
- MIC50 (Streptococcus agalactiae [16]): 0.5 mg/L
- MIC90 (Streptococcus agalactiae [16]): 1 mg/L
- Activity (Streptococcus viridans [17]): 100%
- Activity [18]: 100%
- MIC50 (Streptococcus pyogenes [19]): 0.5 mg/L
- MIC90 (Streptococcus pyogenes [19]): 1 mg/L
- MIC [20]: ≤ 0.12 mg/L
- MIC50 [20]: inactive
- MIC90 [20]: inactive

SMILES: CN(C)[C@@H]1C(O)=C(C(N)=O)C(=O)[C@@]2(O)C(O)=C3C(=O)c4c(O)cccc4[C@@](C)(O)[C@H]3C[C@@H]12 [TETRACYCLINE]
- Activity (Streptococcus pneumoniae [1]): 37%
- Activity (Streptococcus pyogenes [2]): 89%
- Activity [3]: 75%
- Activity (Streptococcus pneumoniae [4]): 67%
- MIC50 (Streptococcus pneumoniae [5]): 0.12 mg/L (≈ 0.27 µM)
- MIC90 (Streptococcus pneumoniae [5]): > 8 mg/L
- Activity (Streptococcus pneumoniae [6]): 41%
- Activity (Streptococcus oralis [7]): 75%
- MIC (Streptococcus oralis [8]): 0.12 mg/L (≈ 0.27 µM)
- MIC50 (Streptococcus oralis [8]): inactive
- MIC90 (Streptococcus oralis [8]): inactive
- MIC [9]: 0.12 mg/L (≈ 0.27 µM)
- MIC50 [9]: inactive
- MIC90 [9]: inactive
- Activity (Streptococcus mitis [10]): 75%
- MIC (Streptococcus mitis [11]): 0.12 mg/L (≈ 0.27 µM)
- MIC50 (Streptococcus mitis [11]): inactive
- MIC90 (Streptococcus mitis [11]): inactive
- Activity (Streptococcus agalactiae [12]): 16%
- MIC50 (Streptococcus pneumoniae [13]): > 8 mg/L
- MIC (Streptococcus viridans [14]): 0.12 mg/L (≈ 0.27 µM)
- MIC50 (Streptococcus viridans [14]): inactive
- MIC90 (Streptococcus viridans [14]): inactive
- MIC50 (Streptococcus pneumoniae [15]): > 8 mg/L
- MIC50 (Streptococcus agalactiae [16]): > 8 mg/L
- MIC90 (Streptococcus agalactiae [16]): > 8 mg/L
- Activity (Streptococcus viridans [17]): 75%
- Activity [18]: 75%
- MIC50 (Streptococcus pyogenes [19]): 0.12 mg/L (≈ 0.27 µM)
- MIC90 (Streptococcus pyogenes [19]): 4 mg/L (≈ 9 µM)
- MIC [20]: 0.12 mg/L (≈ 0.27 µM)
- MIC50 [20]: inactive
- MIC90 [20]: inactive
